In US7414069B2, “Antituberculosis compounds, Hirsutellones A, B, and C” (National Center for Genetic Engineering & Biotechnology, …, priority 2004, dated 2008):
≈ marks a conversion by molar mass, not a printed value.

Tests used:
[1] = Cytotoxicity against NCI-H187 cells (sulforhodamine B staining); format: cell-based; details: human, NCI-H187 cells (lung cancer, ATCC CRL-5804), starting concentration 20 μg/ml
Description: (§1) Hirsutellones A, B and C were tested for cytotoxicity by incubating with Vero cells (African green monkey kidney cell line from American Type Culture Collection USA; ATCC # CCL-81). Each compound was dissolved in dimethyl sulfoxide and then diluted in the culture medium of the Vero cells (Eagle's Minimum Essential with 10% heat-inactivated fetal bovine serum and antibiotics). The Vero cells and the compound were incubated together in a 96-well microplate at a cell concentration of 1.9×10^4 cells/190 μl/well, in a CO2 incubator at 37° C. for 3 days.
(§2) The numbers of the cells in the wells were then determined by a staining method (Skehan, P., et al., J. Natl Cancer Inst., 82:1107-1112 (1990)). The cells were initially fixed by 50% cold trichloroacetic acid (TCA) at 4° C. for 30 minutes. The cells were then washed with water 4 times. After drying, the cells were stained with 0.05% sulforhodamine B in 1% acetic acid for 30 minutes, washed with ^1% acetic acid 4 times and dried at room temperature. Finally, 10 mM Tris-base pH 10 was added. The absorbance at 510 nm of test wells was measured by an ELISA microplate reader. The absorbance was proportionate to the number of the viable cells in the wells. The toxicity level of the compound was recorded as the concentration that rendered the number of viable cells to be less than half of the negative control wells, which contained the cells with DMSO but not the compound. Ellipticine was used as a positive control. The toxicity level of each compound against Vero cells was expressed as IC50.
(§3) Hirsutellones were also tested for cytotoxicity against multiple human cancer cell lines, to study the effects on human cells in vitro. The cancer cell lines included KB cells (oral epidermoid carcinoma; ATCC # CCL-17), BC cells (breast cancer) and NCI-H187 cells (lung cancer; ATCC # CRL-5804) The same protocol as that for the cytotoxicity assay against Vero cells was used, except for the starting compound concentration which was 20 μg/ml.

[2] = test system: Mycobacterium tuberculosis H37Ra strain (ATCC 25166); experiment: Microplate Alamar Blue Assay (MABA), antituberculous activity; format: cell-based; details: M. tuberculosis H37Ra, two-fold serial dilution from 50 μg/ml
Description: Preparation of Mycobacteria Mycobacterium tuberculosis H37Ra strain (ATCC 25166) was grown in 100 ml of Middlebrook 7H9 broth supplemented with 0.2% glycerol, 1.0 g/l of casitone, 10% OADC, and 0.05% Tween 80. The complete medium was referred to as 7H9GC-Tween. The bacteria were incubated in 500-ml flasks on a rotary shaker at 200 rpm and 37° C. until the optical density at 550 nm reached 0.4-0.5. The bacteria were washed twice with phosphate-buffered saline and then suspended in 20 ml of phosphate-buffered saline. The suspension was passed through an 8-μm-pore-size filter to eliminate clumps. The number of bacteria in the filtrates were counted by plating the bacteria in Middlebrook 7H10 agar. The filtrates were stored at −80° C.
Microplate Alamar Blue Assays (MABA) Anti-tuberculous testing was performed in a 96-well microplate as previously described (Collins, L. and Franzblau, S. G., Antimicrob. Agents Chemother., 41:1004-1009 (1997)). Outer perimeter wells were filled with sterile water to prevent dehydration of the test wells. Crude extracts were initially diluted with dimethyl sulfoxide, and then were diluted to a concentration of 400 μg/ml in Middlebrook 7H9 medium containing 0.2% V/V glycerol and 1.0 g/l casitone (7H9GC). The wells in rows B to G in columns 2, 4, 5, 6, 8, 9, 10 of the microplate were filled with 100 μl of 7H9GC. The wells in column 11 were inoculated with 200 μl of the medium to serve as media controls (M). Bacteria (only) controls (B) were set-up in column 10. One hundred microliters of each crude extract solution (400 μg/ml) were added to three wells in one row in columns 2 (or 6), 3 (or 7) and 4 (or 8). One hundred microliters were transferred from column 4 (or 8) to column 5 (or 9), the contents of the wells in column 5 (or 9) were mixed well and then 100 μl of mixed medium were discarded. The wells in columns 2 and 6 served as test sample controls.
Frozen bacterial inocula were diluted 1:200 in 7H9GC medium. One hundred microliters of the bacteria were added to the wells in rows B to G in columns 3 (or 7), 4 (or 8), 5 (or 9) and 10, resulting in final bacterial titers of approximately 5×10^4 CFU/ml. The wells in column 10 served as bacteria (only) controls (B). Final concentrations of extracts were 200, 100 and 50 μg/ml in columns 3 (or 7), 4 (or 8) and 5 (or 9), respectively.
The plates were sealed with Parafilm and were incubated at 37° C. for 5 days. At day 6 of incubation, 20 μl of Alamar Blue reagent and 12.5 μl of 20% Tween 80 were added to well B10 (B) and B11 (M). The plates were re-incubated at 37° C. for 24 h. […] If the B wells became pink by 24 h, reagent was added to the entire plate. If the well remained blue, the additional M and B wells were tested daily until a color change occurred at which time reagents were added to all remaining wells. The microplates were resealed with Parafilm and were then incubated at 37° C. The results were recorded 24 h after adding reagent.
Blue color in the well was interpreted as no growth, reflecting the activity of the test compound in the well. A pink color was scored as growth and reflected the lack of activity of the test compound. A few wells appeared violet after 24 h of incubation, but they invariably changed to pink after extra day of incubation and thus were scored as growth (while the adjacent blue wells remained blue). […]

[3] = Cytotoxicity against Vero cells (sulforhodamine B staining); format: cell-based; details: African green monkey, Vero cells (ATCC CCL-81), 37° C.
Description: as §1, §2

[4] = Cytotoxicity against BC cells (sulforhodamine B staining); format: cell-based; details: human, BC cells (breast cancer), starting concentration 20 μg/ml
Description: as §1, §2, §3

[5] = Cytotoxicity against KB cells (sulforhodamine B staining); format: cell-based; details: human, KB cells (oral epidermoid carcinoma, ATCC CCL-17), starting concentration 20 μg/ml
Description: as §1, §2, §3

| SMILES | IC50 at 3 days [1] [µg/mL] | melting point | MIC [2] [µg/mL] | IC50 at 3 days [3] [µg/mL] | IC50 at 3 days [4] [µg/mL] | IC50 at 3 days [5] [µg/mL] |
| --- | --- | --- | --- | --- | --- | --- |
| C=CC1C=CC2C3CC(C)CCC3C3Oc4ccc(cc4)CC4(O)CC(C(=O)N4)C(=O)C1C23 (centres unmarked) [Hirsutellone B] | 6 (≈ 13.4 µM) | 261 to 263 °C (dec.) | 0.78 (≈ 1.74 µM) | > 50 | > 20 | > 20 |
| Cc1c2ccncc2c(C)c2c1[nH]c1ccccc12 [Ellipticine, reference compound] | 0.39 (≈ 1.58 µM) | – | – | 0.4 (≈ 1.62 µM) | 1.5 (≈ 6.09 µM) | 1.3 (≈ 5.28 µM) |
| C=CC1C=CC2C3CC(C)CCC3C3Oc4ccc(cc4)CC4C(=O)NC(=O)C4C(=O)C1C23 (centres unmarked) [Hirsutellone A] | > 20 | – | 0.78 (≈ 1.75 µM) | > 50 | > 20 | > 20 |
| NC[C@H]1O[C@H](O[C@H]2[C@H](O)[C@@H](O[C@H]3O[C@H](CO)[C@@H](O)[C@H](N)[C@H]3O)[C@H](N)C[C@@H]2N)[C@H](O)[C@@H](O)[C@@H]1O [kanamycin, reference compound] | – | – | 2.5 (≈ 5.16 µM) | – | – | – |
| C=CC1C=CC2C3CC(C)CCC3C3Oc4ccc(cc4)CC4(O)NC(=O)C5(OC45)C(=O)C1C23 (centres unmarked) [Hirsutellone C] | 8.3 (≈ 18 µM) | 234 to 235 °C (dec.) | 0.78 (≈ 1.69 µM) | 12 (≈ 26 µM) | 3.2 (≈ 6.93 µM) | 4.6 (≈ 9.97 µM) |
| NNC(=O)c1ccncc1 [isoniazid, reference compound] | – | – | 0.04 (≈ 0.292 µM) | – | – | – |
